Laboratory results taken from PubChem BioAssay (NCI).
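Interpolation was linear, between the two tested concentrations surrounding the appropriate level; five concentrations were tested over 48 hours in 96-well plates. At the GI50, growth is halved. Definition used: TGI = concentration required for complete inhibition of growth.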

Experiments:
Experiment in all cases: growth of human tumour cells (NCI), 48 h
[1] = test system: CAKI-1 renal
[2] = test system: NCI-H460 lung
[3] = test system: NCI-H522 lung
[4] = test system: HOP-92 NSCLC
[5] = test system: SR leukemia
[6] = test system: HOP-62 NSCLC
[7] = test system: EKVX NSCLC
[8] = test system: HCT-15 colon
[9] = test system: SK-MEL-5 melanoma
[10] = test system: IGROV1 ovarian
[11] = test system: NCI/ADR-RES ovarian
[12] = test system: SK-MEL-2 melanoma
[13] = test system: KM12 colon
[14] = test system: SF-539 CNS
[15] = test system: A549 NSCLC
[16] = test system: SK-MEL-28 melanoma
[17] = test system: MDA-MB-231 breast
[18] = test system: U251 CNS
[19] = test system: COLO 205 colon
[20] = test system: UO-31 renal
[21] = test system: ACHN renal
[22] = test system: MALME-3M melanoma
[23] = test system: T-47D breast
[24] = test system: SN12C renal
[25] = test system: CCRF-CEM leukemia
[26] = test system: MOLT-4 leukemia
[27] = test system: UACC-62 melanoma
[28] = test system: BT-549 breast
[29] = test system: TK-10 renal
[30] = test system: SNB-19 CNS
[31] = test system: RPMI-8226 leukemia
[32] = test system: HT29 colon
[33] = test system: K-562 leukemia
[34] = test system: SF-295 CNS
[35] = test system: SK-OV-3 ovarian
[36] = test system: OVCAR-5 ovarian
[37] = test system: A498 renal
[38] = test system: HL-60(TB) leukemia
[39] = test system: UACC-257 melanoma
[40] = test system: SNB-75 CNS
[41] = test system: M14 melanoma
[42] = test system: MDA-MB-435
[43] = test system: OVCAR-4 ovarian
[44] = test system: SF-268 CNS
[45] = test system: NCI-H226 lung
[46] = test system: RXF 393 renal
[47] = test system: NCI-H23 lung
[48] = test system: HCT-116 colon
[49] = test system: LOX IMVI melanoma
[50] = test system: OVCAR-8 ovarian
[51] = test system: 786-0 renal
[52] = test system: HCC-2998 colon
[53] = test system: OVCAR-3 ovarian
[54] = test system: PC-3 prostate
[55] = test system: DU-145 prostate
[56] = test system: HS 578T breast
[57] = test system: SW-620 colon

`Cc1ccc2c(n1)C(=O)C(Cl)=C(Nc1cccc(C(C)C)c1)C2=O` gave a GI50 [1] of 1.88 µM, a TGI [1] of 6.22 µM and a GI50 [2] of 3.42 µM. For the same compound, the TGI [2] was 13.5 µM, the GI50 [3] was 2.25 µM and the TGI [3] was 5.6 µM. It also gave a GI50 [4] of 1.76 µM, a TGI [4] of 3.58 µM and a GI50 [5] of 1.63 µM. For the same compound, the TGI [5] was greater than 100 µM, the GI50 [6] was 2.7 µM and the TGI [6] was 10.8 µM. For the same compound, the GI50 [7] was 1.59 µM, the TGI [7] was 3.24 µM and the GI50 [8] was 1.43 µM. It also gave a TGI [8] of 3.36 µM, a GI50 [9] of 1.67 µM and a TGI [9] of 3.06 µM. It also gave a GI50 [10] of 1.56 µM, a TGI [10] of 3.1 µM and a GI50 [11] of 2.49 µM. The TGI [11] was 9.13 µM, the GI50 [12] was 3.72 µM and the TGI [12] was 12.8 µM. The GI50 [13] was 4.94 µM, the TGI [13] was 28.6 µM and the GI50 [14] was 1.71 µM. The TGI [14] was 3.15 µM, the GI50 [15] was 3.66 µM and the TGI [15] was 14 µM. It also gave a GI50 [16] of 2.4 µM, a TGI [16] of 5.58 µM and a GI50 [17] of 1.37 µM. It also gave a TGI [17] of 3.01 µM, a GI50 [18] of 2.94 µM and a TGI [18] of 11.1 µM. It also gave a GI50 [19] of 3.33 µM, a TGI [19] of 12.1 µM and a GI50 [20] of 1.49 µM. It also gave a TGI [20] of 2.83 µM, a GI50 [21] of 1.69 µM and a TGI [21] of 3.12 µM. The GI50 [22] was 1.65 µM, the TGI [22] was 3.18 µM and the GI50 [23] was 1.61 µM. The TGI [23] was 4.15 µM, the GI50 [24] was 1.76 µM and the TGI [24] was 4.54 µM. It also gave a GI50 [25] of 2.36 µM, a TGI [25] of 19.9 µM and a GI50 [26] of 2.27 µM. For the same compound, the TGI [26] was greater than 100 µM, the GI50 [27] was 2.05 µM and the TGI [27] was 4.64 µM. For the same compound, the GI50 [28] was 2.45 µM, the TGI [28] was 10.8 µM and the GI50 [29] was 4.67 µM. It also gave a TGI [29] of 13.8 µM, a GI50 [30] of 3.23 µM and a TGI [30] of 13.6 µM. The GI50 [31] was 1.5 µM, the TGI [31] was 5.18 µM and the GI50 [32] was 3.84 µM. For the same compound, the TGI [32] was 31.4 µM, the GI50 [33] was 2.47 µM and the TGI [33] was greater than 100 µM. For the same compound, the GI50 [34] was 3.5 µM, the TGI [34] was 11.5 µM and the GI50 [35] was 13.2 µM. It also gave a TGI [35] of 26.7 µM, a GI50 [36] of 2.17 µM and a TGI [36] of 4.55 µM. It also gave a GI50 [37] of 6.56 µM, a TGI [37] of 19.9 µM and a GI50 [38] of 1.73 µM. It also gave a TGI [38] of 6.41 µM, a GI50 [39] of 1.59 µM and a TGI [39] of 3.07 µM. For the same compound, the GI50 [40] was 1.4 µM, the TGI [40] was 3.19 µM and the GI50 [41] was 2.94 µM. For the same compound, the TGI [41] was 10.1 µM, the GI50 [42] was 1.71 µM and the TGI [42] was 3.16 µM. The GI50 [43] was 1.35 µM, the TGI [43] was 2.64 µM and the GI50 [44] was 3.17 µM. It also gave a TGI [44] of 34.6 µM, a GI50 [45] of 1.48 µM and a TGI [45] of 3.59 µM. The GI50 [46] was 1.29 µM, the TGI [46] was 2.56 µM and the GI50 [47] was 1.58 µM. The TGI [47] was 4.55 µM, the GI50 [48] was 1.52 µM and the TGI [48] was 3.55 µM. The GI50 [49] was 0.698 µM, the TGI [49] was 2.54 µM and the GI50 [50] was 2.53 µM. It also gave a TGI [50] of 8.97 µM, a GI50 [51] of 2.18 µM and a TGI [51] of 5.44 µM. The GI50 [52] was 3.95 µM, the TGI [52] was 13.7 µM and the GI50 [53] was 0.617 µM. For the same compound, the TGI [53] was 2.91 µM, the GI50 [54] was 2.17 µM and the TGI [54] was 16.3 µM. It also gave a GI50 [55] of 1.86 µM, a TGI [55] of 3.82 µM and a GI50 [56] of 2.29 µM. It also gave a TGI [56] of 6.16 µM, a GI50 [57] of 1.94 µM and a TGI [57] of 4.03 µM.
